Calls of active or inactive are those of the source.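 The calls were made as follows: active = hERG flux cut by over 30% at some tested dose, with a fitted dose response curve; inactive = no hERG inhibition at any dose or no curve.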
Target: Voltage-gated inwardly rectifying potassium channel KCNH2 (Homo sapiens) (UniProt Q12809)
Experiment: off-target hERG block by TASK1 inhibitor candidates – FluxOR thallium flux, concentration-response, CHO cells, selectivity assay for TASK1 inhibitor project, SAR follow-up (AID 652194)
Settings: hERG-expressing cells, FluxOR thallium flux fluorescence; at 30 µM (top of the series)

Voltage-gated inwardly rectifying potassium channel KCNH2 (Homo sapiens), sequence (Q12809 whole entry, looked up): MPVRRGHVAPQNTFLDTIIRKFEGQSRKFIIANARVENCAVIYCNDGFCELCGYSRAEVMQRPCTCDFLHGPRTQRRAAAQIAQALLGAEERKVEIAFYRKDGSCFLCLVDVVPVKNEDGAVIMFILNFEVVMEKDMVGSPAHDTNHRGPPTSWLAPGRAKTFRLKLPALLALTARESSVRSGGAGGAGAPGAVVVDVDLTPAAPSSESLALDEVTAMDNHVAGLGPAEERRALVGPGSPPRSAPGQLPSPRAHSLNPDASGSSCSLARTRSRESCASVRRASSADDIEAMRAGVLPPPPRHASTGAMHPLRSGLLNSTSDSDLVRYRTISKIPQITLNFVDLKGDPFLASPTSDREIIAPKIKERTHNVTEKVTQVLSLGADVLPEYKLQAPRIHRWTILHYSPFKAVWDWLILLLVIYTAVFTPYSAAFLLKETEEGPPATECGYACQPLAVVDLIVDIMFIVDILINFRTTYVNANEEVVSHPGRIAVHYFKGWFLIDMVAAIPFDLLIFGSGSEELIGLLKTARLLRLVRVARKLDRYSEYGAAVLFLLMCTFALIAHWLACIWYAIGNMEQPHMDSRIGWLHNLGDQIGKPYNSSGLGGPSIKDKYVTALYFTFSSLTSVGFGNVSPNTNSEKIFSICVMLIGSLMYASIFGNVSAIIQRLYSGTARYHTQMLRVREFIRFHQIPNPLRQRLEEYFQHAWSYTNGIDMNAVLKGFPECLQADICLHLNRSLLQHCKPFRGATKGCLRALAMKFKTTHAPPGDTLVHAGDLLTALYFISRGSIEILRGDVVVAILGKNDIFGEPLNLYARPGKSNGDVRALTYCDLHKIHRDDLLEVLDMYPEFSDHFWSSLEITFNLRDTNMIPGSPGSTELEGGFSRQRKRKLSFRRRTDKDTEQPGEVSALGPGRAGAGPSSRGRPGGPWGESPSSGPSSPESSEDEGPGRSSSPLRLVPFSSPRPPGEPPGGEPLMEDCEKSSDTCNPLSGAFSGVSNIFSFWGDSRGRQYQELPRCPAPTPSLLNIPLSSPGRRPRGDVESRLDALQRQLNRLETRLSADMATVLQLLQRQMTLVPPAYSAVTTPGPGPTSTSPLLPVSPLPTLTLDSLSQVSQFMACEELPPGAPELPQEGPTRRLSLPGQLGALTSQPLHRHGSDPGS

Structure (SMILES) | flux ratio, lower = inhibition
CCOc1ccccc1NC(=O)c1cccc(NC(=O)C2CC2)c1 | inactive
COc1ccccc1NC(=O)c1cccc(NC(=O)C2CCCCC2)c1 | inactive
CCOc1ccccc1C(=O)Nc1cccc(NC(=O)c2ccccc2C(F)(F)F)c1 | inactive
Cc1cccc(C(=O)Nc2cccc(NC(=O)c3ccccc3C)c2)c1 | inactive
O=C(Nc1cccc(NC(=O)c2cccc(F)c2)c1)c1ccccc1 | inactive
Cc1cccc(C(=O)Nc2cccc(NC(=O)c3cccs3)c2)c1 | inactive
CC(C)c1ccccc1C(=O)Nc1cccc(NC(=O)c2ccccc2OC(F)(F)F)c1 | inactive
COc1ccccc1C(=O)Nc1cccc(NC(=O)c2ccccc2OC)c1 | inactive
CCOc1ccccc1NC(=O)c1cccc(NC(=O)CC2CCCC2)c1 | inactive
CCOc1ccccc1NC(=O)c1cccc(NC(=O)C2CCCCC2)c1 | inactive
O=C(Nc1cccc(NC(=O)C2CCCCC2)c1)c1ccccc1 | inactive
O=C(Nc1cccc(NC(=O)c2ccccn2)c1)c1ccccc1 | inactive
O=C(Nc1cccc(NC(=O)c2cccc(C(F)(F)F)c2)c1)c1ccccc1 | inactive
CCOc1ccccc1NC(=O)c1cccc(NC(=O)c2ccc(OC)cc2)c1 | inactive
CCOc1ccccc1NC(=O)c1cccc(NC(=O)C2CCCO2)c1 (stereo not given) | inactive
O=C(Nc1cccc(NC(=O)c2ccc(Cl)cc2)c1)c1ccccc1 | inactive
COc1ccccc1C(=O)Nc1cccc(NC(=O)c2ccccc2C)c1 | inactive
COc1ccc(C(=O)Nc2cccc(NC(=O)c3cccc(C)c3)c2)cc1 | inactive
COc1ccccc1C(=O)Nc1cccc(NC(=O)c2cccc3ccccc23)c1 | inactive
COc1c(F)cccc1C(=O)Nc1cccc(NC(=O)c2cccc(C)c2)c1 | inactive
Cc1cccc(C(=O)Nc2ccccc2NC(=O)c2ccccc2)c1 | inactive
COc1ccccc1C(=O)Nc1cccc(NC(=O)c2ccccc2)c1 | inactive

Structure (SMILES) | flux ratio, lower = inhibition
CCOc1ccccc1NC(=O)c1cccc(NC(=O)CC2CCCCC2)c1 | inactive
CCOc1ccccc1NC(=O)c1cccc(NC(=O)c2ccccc2C)c1 | inactive
CCOc1ccccc1NC(=O)c1cccc(NC(=O)c2ccccc2)c1 | inactive
Cc1cccc(C(=O)Nc2cccc(NC(=O)c3ccccc3)c2)c1 | inactive
Cc1cccc(C(=O)Nc2cccc(NC(=O)c3ccccc3C(F)(F)F)c2)c1 | inactive
Cc1ccc(C(=O)Nc2cccc(NC(=O)c3ccccc3)c2)cc1 | inactive
COc1ccccc1NC(=O)c1cccc(NC(=O)c2ccccc2C(F)(F)F)c1 | inactive
COc1ccccc1C(=O)Nc1cccc(NC(=O)c2cccc(C)c2)c1 | inactive
Cc1cccc(C(=O)Nc2cccc(NC(=O)c3ccccc3OCC(C)C)c2)c1 | inactive
O=C(Nc1cccc(NC(=O)c2ccoc2)c1)c1ccccc1 | inactive
O=C(Nc1cccc(NC(=O)c2ccc(F)cc2)c1)c1ccccc1 | inactive
O=C(Nc1cccc(NC(=O)c2ccc(C(F)(F)F)cc2)c1)c1ccccc1 | inactive
COc1ccccc1C(=O)Nc1cccc(NC(=O)c2ccccc2C(C)C)c1 | inactive
COc1ccccc1C(=O)Nc1cc(NC(=O)c2cccc(C)c2)ccc1F | inactive
Cc1cccc(C(=O)Nc2cccc(NC(=O)c3ccc(N(C)C)cc3)c2)c1 | inactive
O=C(Nc1cccc(NC(=O)c2cccnc2)c1)c1ccccc1 | inactive
COc1ccccc1C(=O)Nc1cccc(NC(=O)c2ccccc2OC(F)(F)F)c1 | inactive
CCOc1ccccc1C(=O)Nc1cccc(NC(=O)C2CCCC2)c1 | inactive
CCOc1ccccc1NC(=O)c1cccc(NC(=O)c2ccccc2OC)c1 | inactive
CCOc1ccccc1NC(=O)c1cccc(NC(=O)c2ccc(Cl)cc2)c1 | inactive
Cc1cccc(NC(=O)c2cccc(NC(=O)c3ccccc3)c2)c1 | inactive
Cc1cccc(C(=O)Nc2cccc(NC(=O)c3ccccc3C(C)C)c2)c1 | inactive

Structure (SMILES) | flux ratio, lower = inhibition
COc1cccc(C(=O)Nc2cccc(NC(=O)c3cccc(C)c3)c2)c1 | inactive
O=C(Nc1cccc(NC(=O)c2ccco2)c1)c1ccccc1 | inactive
O=C(Nc1cccc(NC(=O)c2ccccc2C(F)(F)F)c1)c1ccccc1 | inactive
O=C(Nc1cccc(NC(=O)c2ccsc2)c1)c1ccccc1 | inactive
Cc1cccc(C(=O)Nc2cccc(NC(=O)c3cccc(F)c3)c2)c1 | inactive
CCOc1ccccc1C(=O)Nc1cccc(NC(=O)c2ccccc2OC)c1 | inactive
COc1ccccc1NC(=O)c1cccc(NC(=O)c2ccccc2)c1 | inactive
CCOc1ccccc1NC(=O)c1cccc(NC(=O)c2ccccc2Cl)c1 | inactive
CCOc1ccccc1NC(=O)c1cccc(NC(=O)c2ccc(C(F)(F)F)cc2)c1 | inactive
Cc1cccc(C(=O)Nc2cccc(NC(=O)c3ccncc3)c2)c1 | inactive
Cc1cccc(C(=O)Nc2cccc(NC(=O)c3ccco3)c2)c1 | inactive
Cc1cccc(S(=O)(=O)Nc2cccc(NC(=O)c3ccccc3)c2)c1 | inactive
CCOc1ccccc1NC(=O)c1cccc(NC(=O)C2CCCC2)c1 | inactive
CCOc1ccccc1NC(=O)c1cccc(NC(=O)c2ccccc2OC(F)(F)F)c1 | inactive
COc1ccccc1NC(=O)c1cccc(NC(=O)c2ccccc2OC)c1 | inactive
CCOc1ccccc1C(=O)Nc1cccc(NC(=O)c2cccc(C)c2)c1 | inactive
O=C(Nc1cccc(NC(=O)c2ccncc2)c1)c1ccccc1 | inactive
COc1ccccc1NC(=O)c1cccc(NC(=O)CC2CCCC2)c1 | inactive
COc1ccc(C(=O)Nc2cccc(NC(=O)c3ccccc3)c2)cc1 | inactive
COc1ccccc1C(=O)Nc1cc(NC(=O)c2ccccc2C(C)C)ccc1F | inactive
Cc1cccc(NC(=O)c2ccccc2NC(=O)c2ccccc2)c1 | inactive
CC(C)Oc1ccccc1C(=O)Nc1cccc(NC(=O)c2ccccc2OC(F)(F)F)c1 | inactive

Structure (SMILES) | flux ratio, lower = inhibition
CCOc1ccccc1NC(=O)c1cccc(C(=O)NC2CCCC2)c1 | inactive
CCOc1ccccc1NC(=O)c1cccc(NC(=O)c2ccccc2C(F)(F)F)c1 | inactive
CN(C)c1ccc(C(=O)Nc2cccc(NC(=O)c3ccccc3)c2)cc1 | inactive
Cc1ccccc1C(=O)Nc1cccc(NC(=O)c2ccccc2)c1 | inactive
Cc1cccc(C(=O)Nc2cccc(NC(=O)c3ccc(C(F)(F)F)cc3)c2)c1 | inactive
Cc1cccc(C(=O)Nc2cccc(NC(=O)c3ccc(Cl)cc3)c2)c1 | inactive
CCOc1ccccc1NC(=O)c1cccc(NC(=O)C(C)(C)C)c1 | inactive
CCOc1ccccc1NC(=O)c1cccc(NC(=O)c2cccc(OC)c2)c1 | inactive
Cc1cccc(C(=O)Nc2cccc(NC(=O)c3ccccc3Cl)c2)c1 | inactive
Cc1cccc(C(=O)Nc2ccccc2C(=O)Nc2ccccc2)c1 | inactive
COc1cccc(C(=O)Nc2cccc(NC(=O)c3ccccc3)c2)c1 | inactive
O=C(Nc1cccc(NC(=O)c2cccs2)c1)c1ccccc1 | inactive
CCOc1ccccc1NC(=O)c1cccc(NC(=O)c2cccc(C)c2)c1 | inactive
CCOc1ccccc1NC(=O)c1cccc(NC(=O)c2ccc(C)cc2)c1 | inactive
COc1ccc(F)cc1C(=O)Nc1cccc(NC(=O)c2cccc(C)c2)c1 | inactive
O=C(Nc1cccc(NC(=O)c2ccccc2Cl)c1)c1ccccc1 | inactive
CCOc1ccccc1NC(=O)c1cccc(NC(=O)C2CCOC2)c1 (stereo not given) | inactive
COc1cccc(OC)c1C(=O)Nc1cccc(NC(=O)c2cccc(C)c2)c1 | inactive
Cc1cccc(C(=O)Nc2cccc(NC(=O)c3cccc(C(F)(F)F)c3)c2)c1 | inactive

From PubChem BioAssay AID652194 (Johns Hopkins Ion Channel Center, 2013)
